Test results: patent US9695155B2, “Herbicidal substituted pyrimidinyloxy benzene compounds” (E. I. DU PONT DE NEMOURS AND COMPANY, priority 2013, dated 2017)

Legend:
blackgrass = test: Test D preemergence; type: in vivo, Alopecurus myosuroides; conditions: Alopecurus myosuroides, pre-emergence, scale 0-100, read-out: Plant response rating, Blackgrass
How it was run: (§1)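 Visual rating vs untreated controls, 0 = no effect, 100 = complete control, taken 7–21 d after treatment. Pre: silt loam soil. Post: potting medium, plants 2–18 cm, 1–4 leaf. Formulation: non-phytotoxic solvent mix + surfactant.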

wild mustard = test: Test D preemergence; type: in vivo, Sinapis arvensis; conditions: Brassica, pre-emergence, scale 0-100, read-out: Plant response rating, Mustard, Wild
How it was run: as §1

waterhemp = test: Test E postemergence; type: in vivo, Amaranthus rudis; conditions: Amaranthus tuberculatus, post-emergence, Postemergence, scale 0 to 100, read-out: Plant response rating, Waterhemp
How it was run: (§2)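 Compound in a non-phytotoxic solvent mixture with surfactant was applied preemergence to seeds in silt loam soil, or postemergence to plants 2 to 18 cm tall grown in peat-based potting medium. Plants were kept in a greenhouse for 14 to 21 days, then rated visually against untreated controls on a 0 (no effect) to 100 (complete control) scale.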

[1] = tested on: waterhemp_RES2 (ALS & HPPD resistant common waterhemp); test: Test E postemergence; type: in vivo, Amaranthus rudis; conditions: Amaranthus tuberculatus, post-emergence, read-out: Plant response rating, Waterhemp_RES2
How it was run: as §2

soybean = test: Test E postemergence; type: in vivo, Glycine max; conditions: Glycine max, post-emergence
How it was run: as §2

galium = test: Test D preemergence; type: in vivo, Galium aparine; conditions: Galium, pre-emergence, scale 0-100, read-out: Plant response rating, Galium
How it was run: as §1

windgrass = test: Test D postemergence; type: in vivo, Apera spica-venti; conditions: Apera spica-venti, post-emergence, scale 0 to 100 (0 no effect, 100 complete control), read-out: Plant response rating, Windgrass
How it was run: as §1

speedwell = test: Test D preemergence; type: in vivo, Veronica persica; conditions: Veronica persica, pre-emergence
How it was run: as §1

Brazilian crabgrass = test: Test E postemergence; type: in vivo, Digitaria horizontalis; conditions: Digitaria horizontalis, post-emergence, read-out: Plant response rating, Crabgrass, Brazil
How it was run: as §2

bluegrass = test: Test D postemergence; type: in vivo, Poa annua; conditions: Poa annua, post-emergence, Postemergence, scale 0 to 100 (0 no effect, 100 complete control), read-out: Plant response rating, Bluegrass
How it was run: as §1

fall panicum = test: Test E postemergence; type: in vivo, Panicum dichotomiflorum; conditions: Panicum dichotomiflorum, post-emergence, read-out: Plant response rating, Panicum, Fall
How it was run: as §2

chickweed = test: Test D preemergence; type: in vivo, Stellaria media; conditions: Stellaria media, pre-emergence, scale 0-100, read-out: Plant response rating, Chickweed
How it was run: as §1

Italian ryegrass = test: Test D postemergence; type: in vivo, Lolium multiflorum; conditions: Lolium multiflorum, post-emergence, scale 0 to 100 (0 no effect, 100 complete control), read-out: Plant response rating, Ryegrass, Italian
How it was run: as §1

[2] = Postemergence, 31 g ai/ha, scale 0 to 100
[3] = Postemergence, 62 g ai/ha, scale 0 to 100
[4] = Postemergence, 125 g ai/ha, scale 0 to 100
[5] = Postemergence, 250 g ai/ha, scale 0 to 100
[6] = postemergence, 16 g ai/ha, scale 0 to 100, 0 no effect, 100 complete control

N#Cc1cccc(Oc2ncc(Br)cn2)c1-n1cc(C(F)(F)F)cn1 [Compound 59, 3-[(5-bromo-2-pyrimidinyl)oxy]-2-[4-(trifluoromethyl)-1H-pyrazol-1-yl]benzonitrile]
pest or weed control at 31 g/ha (blackgrass; 31 g ai/ha): 25% | pest or weed control at 62 g/ha (blackgrass; 62 g ai/ha): 55% | pest or weed control at 125 g/ha (blackgrass; 125 g ai/ha): 70% | pest or weed control at 250 g/ha (blackgrass; 250 g ai/ha): 85% | pest or weed control at 31 g/ha (wild mustard; 31 g ai/ha): 15% | pest or weed control at 62 g/ha (wild mustard; 62 g ai/ha): 100% | pest or weed control at 125 g/ha (wild mustard; 125 g ai/ha): 100% | pest or weed control at 250 g/ha (wild mustard; 250 g ai/ha): 100% | pest or weed control at 31 g/ha (waterhemp; 31 g ai/ha): 65% | pest or weed control at 62 g/ha (waterhemp; 62 g ai/ha): 90% | pest or weed control at 125 g/ha (waterhemp; 125 g ai/ha): 90% | pest or weed control at 250 g/ha (waterhemp; 250 g ai/ha): 100% | pest or weed control at 31 g/ha [1, 2]: 85% | pest or weed control at 62 g/ha [1, 3]: 90% | pest or weed control at 125 g/ha [1, 4]: 95% | pest or weed control at 250 g/ha [1, 5]: 100% | pest or weed control at 16 g/ha [1, 6]: 75% | plant response (crop injury) rating, soybean, 0-100 scale at 31 g/ha (soybean; [2]): 65% | plant response (crop injury) rating, soybean, 0-100 scale at 62 g/ha (soybean; [3]): 95% | plant response (crop injury) rating, soybean, 0-100 scale at 125 g/ha (soybean; [4]): 95% | plant response (crop injury) rating, soybean, 0-100 scale at 250 g/ha (soybean; [5]): 98% | plant response (crop injury) rating, soybean, 0-100 scale at 16 g/ha (soybean; [6]): 60% | pest or weed control at 31 g/ha (galium; 31 g ai/ha): 0% | pest or weed control at 62 g/ha (galium; 62 g ai/ha): 95% | pest or weed control at 125 g/ha (galium; 125 g ai/ha): 60% | pest or weed control at 250 g/ha (galium; 250 g ai/ha): 100% | pest or weed control at 31 g/ha (windgrass; 31 g ai/ha): 15% | pest or weed control at 62 g/ha (windgrass; 62 g ai/ha): 25% | pest or weed control at 125 g/ha (windgrass; 125 g ai/ha): 35% | pest or weed control at 250 g/ha (windgrass; 250 g ai/ha): 45% | pest or weed control at 31 g/ha (speedwell; 31 g ai/ha, scale 0 (no effect) to 100 (complete control), read-out: Plant response rating, Speedwell): 15% | pest or weed control at 62 g/ha (speedwell; 62 g ai/ha, scale 0-100, read-out: Plant response rating, Speedwell): 100% | pest or weed control at 125 g/ha (speedwell; 125 g ai/ha, scale 0-100, read-out: Plant response rating, Speedwell): 100% | pest or weed control at 250 g/ha (speedwell; 250 g ai/ha, scale 0-100, read-out: Plant response rating, Speedwell): 100% | pest or weed control at 31 g/ha (Brazilian crabgrass; [2]): 15% | pest or weed control at 62 g/ha (Brazilian crabgrass; [3]): 20% | pest or weed control at 125 g/ha (Brazilian crabgrass; [4]): 25% | pest or weed control at 250 g/ha (Brazilian crabgrass; [5]): 50% | pest or weed control at 16 g/ha (Brazilian crabgrass; [6]): 15% | pest or weed control at 31 g/ha (bluegrass; 31 g ai/ha): 15% | pest or weed control at 62 g/ha (bluegrass; 62 g ai/ha): 15% | pest or weed control at 125 g/ha (bluegrass; 125 g ai/ha): 20% | pest or weed control at 250 g/ha (bluegrass; 250 g ai/ha): 40% | pest or weed control at 31 g/ha (fall panicum; [2]): 20% | pest or weed control at 62 g/ha (fall panicum; [3]): 20% | pest or weed control at 125 g/ha (fall panicum; [4]): 30% | pest or weed control at 250 g/ha (fall panicum; [5]): 45% | pest or weed control at 16 g/ha (fall panicum; [6]): 10% | pest or weed control at 31 g/ha (chickweed; 31 g ai/ha): 100% | pest or weed control at 62 g/ha (chickweed; 62 g ai/ha): 100% | pest or weed control at 125 g/ha (chickweed; 125 g ai/ha): 100% | pest or weed control at 250 g/ha (chickweed; 250 g ai/ha): 95% | pest or weed control at 31 g/ha (Italian ryegrass; 31 g ai/ha): 10% | pest or weed control at 62 g/ha (Italian ryegrass; 62 g ai/ha): 10% | pest or weed control at 125 g/ha (Italian ryegrass; 125 g ai/ha): 40% | pest or weed control at 250 g/ha (Italian ryegrass; 250 g ai/ha): 50%
